# Reference: ChEMBL document CHEMBL5360593, “Rare Caulamidine Hexacyclic Alkaloids from the Marine Ascidian Polyandrocarpa sp” (J Nat Prod, 2023)
# Activity calls are given as the source filed them. The calls are words filed in the database; no cut-off is given here.
# Target: E3 ubiquitin-protein ligase CBL-B (Homo sapiens) (UniProt Q13191)
# Assay: Inhibition of CBLB (unknown origin) using biotinylated ubiquitin as substrate at 20 uM incubated for 1 hr by microplate analysis
# Chain of E3 ubiquitin-protein ligase CBL-B (Homo sapiens) (Q13191 whole entry): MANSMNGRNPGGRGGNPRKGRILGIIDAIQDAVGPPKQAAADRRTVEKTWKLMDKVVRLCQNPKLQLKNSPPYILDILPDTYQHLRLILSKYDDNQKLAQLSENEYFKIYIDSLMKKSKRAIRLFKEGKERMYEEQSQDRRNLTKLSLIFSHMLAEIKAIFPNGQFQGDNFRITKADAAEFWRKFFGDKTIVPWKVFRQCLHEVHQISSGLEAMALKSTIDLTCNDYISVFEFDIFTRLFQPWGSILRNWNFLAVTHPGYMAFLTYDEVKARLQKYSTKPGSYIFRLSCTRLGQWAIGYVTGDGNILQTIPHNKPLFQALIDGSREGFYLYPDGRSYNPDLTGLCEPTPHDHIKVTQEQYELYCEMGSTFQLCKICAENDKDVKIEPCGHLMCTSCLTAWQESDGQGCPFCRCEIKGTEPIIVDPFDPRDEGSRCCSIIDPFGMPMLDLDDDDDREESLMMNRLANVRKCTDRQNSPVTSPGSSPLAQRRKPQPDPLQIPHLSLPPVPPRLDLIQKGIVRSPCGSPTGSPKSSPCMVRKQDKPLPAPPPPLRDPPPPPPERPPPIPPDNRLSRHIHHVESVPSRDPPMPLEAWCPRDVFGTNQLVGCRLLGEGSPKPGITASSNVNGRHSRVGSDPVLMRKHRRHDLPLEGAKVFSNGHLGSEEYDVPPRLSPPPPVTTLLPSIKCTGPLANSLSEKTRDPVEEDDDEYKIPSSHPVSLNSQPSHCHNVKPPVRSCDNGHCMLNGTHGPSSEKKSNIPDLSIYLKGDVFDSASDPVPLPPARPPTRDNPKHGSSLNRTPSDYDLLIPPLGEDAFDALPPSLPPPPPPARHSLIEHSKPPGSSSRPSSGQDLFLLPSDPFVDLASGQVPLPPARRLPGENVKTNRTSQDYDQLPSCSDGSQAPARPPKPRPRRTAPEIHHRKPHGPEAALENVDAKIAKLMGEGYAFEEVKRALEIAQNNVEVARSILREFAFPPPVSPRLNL
row,Compound,inhibition
1,CN1C[C@H](Cl)[C@]23Cc4ccc(Br)cc4N(C)C2=NC[C@@H](Cl)[C@]32C1=Nc1ccccc12,inactive
2,CN1CC[C@]23Cc4ccc(Br)cc4N(C)C2=NC[C@@H](Cl)[C@]32C1=Nc1cc(Br)ccc12,inactive

# Other lines, results leading:
row,inhibition,Compound
1,inactive,CN1C[C@@H](Cl)[C@@]23C(=Nc4ccccc42)N(C)C[C@H](Cl)[C@@]32Cc3ccc(Br)cc3N=C12
2,inactive,CN1C[C@@H](Cl)[C@@]23C(=Nc4cc(Br)ccc42)N(C)CC[C@@]32Cc3ccc(Br)cc3N=C12
3,inactive,CN1CC[C@]23Cc4ccc(Br)cc4N(C)C2=NC[C@@H](Cl)[C@]32C1=Nc1ccccc12
4,inactive,CN1C[C@@H](Cl)[C@@]23C(=Nc4ccccc42)N(C)CC[C@@]32Cc3ccc(Br)cc3N=C12
